Laboratory results as given in EP2692724B1, “CHIRAL 3-HYDROXYPYRID-4-ONE DERIVATIVE, AND SYNTHESIS AND USE THEREOF” (Zhejiang University, priority 2011, dated 2012).
Where a name gives a salt, the structure may show the parent alone.

Experiments:
^59Fe-Ferritin = assay: Biological effect of iron chelators over 59Fe-Ferritin/Rat (iron excretion ability, oral); type: in vivo; conditions: for iron excretion ability compared with CP20: in vivo rat test, administered in equimolar amounts; for Iron Excretion (%): rat model, taken orally (intragastric) 1 h after tail vein injection of 59Fe-Ferritin, test ends after 24 h, n=5
Experimental: According to methods described by Pippard's research group [Blood 58: 685-692], use ^59Fe to label ferritin in rat liver. Isolate ^59Fe-labelled ferritin by the method described by Bjorklid and Helgeland. In the preparation process, the rats were injected intraperitoneally with iron dextran, and intravenous administration of red blood cells, in order to keep the plasma transferrin saturated. This method ensures that most of ^59Fe (III) is absorbed by the liver, so ^59Fe-ferritin with high specific radioactivity can be obtained.
Performance of one shot intraperitoneal injection of 15mg iron dextran to 350∼400 g rats. After one week, jugular vein cannula is performed and then a 24 h's rest. Then the second day, each rat is given packed red cells (2 mL/100g). After 24 h, each rat is injected via the jugular vein cannula with 200 µCi ^59FeCl solution (Amersham Life Science). ^59FeCl3 (1mCi) is diluted 0.5 mL citrate (50mM, pH 2.5). Each experiment employs 5 rats, total radiation is 1mCi. 24 h after isotopically labeled injection, the livers were removed from rats.
Homogenization of liver is processed in 4 vol. (w/v) 0.25M acetate buffer. The homogenate was heated to 75°C with stirring for 10min. After cooling to 4°C, remove solid protein by centrifugation at 2500 g for 15 min. Treat the supernatant that contains tissue iron protein with half saturated (NH4)2SO4, while cooling in ice water for 30 min. The precipitate obtained by centrifugation at 3500 g at 4°C for 15 min, is dissolved in 0.25M pH=4.8 acetate buffer. Undissolved precipitate is removed through a Pd-10 column (Sephadex®, G-25M, Pharmacia Biotech). The resulting solution is centrifuged at 100,000 g at 4°C for 2 h. The final precipitate is dissolved in 0.05M pH=7.4 phosphate buffer, and stored at 4°C. The purity of ^59Fe-ferritin and normal Ferritin (Sigma Chemical Co.) are compared by electrophoresis. Iron concentration of ferritin is tested by colorimetry [Biochem Mol. Biol Int 35(3): […]].
Starved rat was injected ^59Fe-Ferritin via tail vein, in order to label rat liver cells with ^59Fe. After 1 h, each rat is given an iron chelator via intragastric injection. Blank group is administered with water by lavage. Each rat is placed in a metabolic cage, collect urine and feces. All rats are given free access to food after oral administration 1h later, and are free to drink water during the whole experiment. Test ends after 24 h of the tail vein injection of ^59Fe-Ferritin. All rats are killed by the cervical dislocation, then the liver and gastrointestinal system (including its content and feces) are collected for ^59Fe quantification. Calculation for iron excretion ability of iron chelators with following formula: (1) Iron Excretion(%)=^59Fe Activity(intestinal track & feces)/(^59Fe Activity(intestinal tracks & feces)+ ^59Fe Activity(liver))×100% Table 1 Iron excretion ability of taking chiral 3-hydroxypyridine-4-one orally on rat model (n=5).

mice = assay: Acute toxicity test in mice (maximum oral dosage); type: in vivo; conditions: suspension of maximum solubility in 0.5% CMC-Na, dose with no fatality
Experimental: Prepare suspension of maximum solubility of each compound with 0.5% CMC-Na. Maximum oral dosage to mice is 0.4 mL/10g. Blank group took the same volume 0.5% CMC-Na solution orally (blank group and test group has 4 mice each, 2 female and 2 male). […] Monitor reaction of animal right after drug administration, including appearance, activities, mental states, appetites, urea/feces and its color, fur, nose, eye, mouth, if there are any abnormal secretions and death situation, give timely autopsy to dead animals. If any obvious pathology of organs is found, perform histopathological inspection. Every inspection should be performed every 30∼60 min in the 1st day, then check once a day, record animal toxicity and death distribution. Table 2. Maximum dosage of a few 3-hydroxypyridin-4-one derivatives to mice.

[1] = reduced by glycosylation of the hydroxyl group at 3' position; cited from earlier work

Row | Molecule | Iron Excretion (%) (^59Fe-Ferritin) | also measured
1 | Cc1c(O)c(=O)ccn1[C@H](CO)C(C)C [CN116, (S)-3-Hydroxy-1-(1-hydroxy-3-methylbutyl-2-)-2-methyl pyridine-4(1H)-one] | 18.7% | iron excretion ability compared with CP20 (^59Fe-Ferritin): several times better than CP20
2 | Cc1c(O)c(=O)ccn1[C@@H](CO)Cc1ccccc1 [CN128, (R)-3-Hydroxy-1-(1-hydroxy-3-benzylpropyl-2-)2-methyl pyridine-4(1H)-one] | 24.8% | iron excretion ability compared with CP20 (^59Fe-Ferritin): several times better than CP20
3 | CCc1c(O)c(=O)ccn1[C@@H](CO)Cc1ccccc1 [CN228, (R)-3-Hydroxy-1-(1-hydroxy-3-phenylpropyl-2-)-2-ethyl pyridine-4(1H)-one] | 22.3% | iron excretion ability compared with CP20 (^59Fe-Ferritin): several times better than CP20
4 | Cc1c(O)c(=O)ccn1[C@@H](CO)C(C)C [CN318, (R)-3-Hydroxy-1-(1-hydroxy-3-methylbutyl-2-)-2-methyl pyridine-4(1H)-one hydrochloride] | 8.0% | 
5 | CCc1c(O)c(=O)ccn1[C@H](CO)Cc1ccccc1 [CN426, (S)-3-Hydroxy-1-(1-hydroxy-3-phenylpropyl-2-)-2-ethyl pyridine-4(1H)-one hydrochloride] | 13.1% | 
6 | CCc1c(O)c(=O)ccn1[C@@H](CO)C(C)C [CN418, (R)-3-Hydroxy-1-(1-hydroxy-3-methylbutyl-2-)-2-ethyl pyridine-4(1H)-one hydrochloride] | 10.6% | 
7 | (R)-3-Hydroxy-1-(1-hydroxy-3-propyl-2-)-2-methyl pyridine-4(1H)-one hydrochloride [CN308] | 6.5% | 
8 | 3-Hydroxy-1-((2S)-1-hydroxy-3-methyl pentyl-2-)-2-methyl pyridine-4(1H)-one hydrochloride [CN336] | 10.8% | 
9 | CCc1c(O)c(=O)ccn1[C@H](C)CO [CN408, (R)-3-Hydroxy-1-(1-hydroxy-3-propyl-2-)-2-ethyl pyridine-4(1H)-one hydrochloride] | 10.6% | 
10 | 3-Hydroxy-1-((2S)-1-hydroxy-3-methyl pentyl-2-)-2-ethyl pyridine-4(1H)-one hydrochloride [CN436] | 5.8% | 
11 | CCc1c(O)c(=O)ccn1[C@@H](C)CO [CN206, (S)-3-Hydroxy-1-(1-hydroxypropyl-2-)-2-ethylpyridine-4(1H)-one] | 16% | Maximum dosage: Dosage(g/kg) (mice): 3.75 g/kg; Maximum dosage: Mole dosage(mmol/kg) (mice): 19.0 mmol/kg; iron excretion ability compared with CP20 (^59Fe-Ferritin): several times better than CP20
12 | Cc1c(O)c(=O)ccn1[C@H](CO)Cc1ccccc1 [CN326, (S)-3-Hydroxy-1-(1-hydroxy-3-phenylpropyl-2-)-2-methyl pyridine-4(1H)-one hydrochloride] | 12.8% | 
13 | Cc1c(O)c(=O)ccn1C [CP20, reference compound] | 11.4% | Maximum dosage: Dosage(g/kg) (mice): 1.50 g/kg; Maximum dosage: Mole dosage(mmol/kg) (mice): 10.7 mmol/kg; half-life [1]: 2∼3 h
14 | CCc1c(O)c(=O)ccn1[C@H](CO)C(C)C [CN416, (S)-3-Hydroxy-1-(1-hydroxy-3-methylbutyl-2-)-2-ethyl pyridine-4(1H)-one hydrochloride] | 7.9% | 
15 | (S)-3-hydroxy-1-(1-hydroxy propyl-2-)-2-methyl pyridine-4(1H)-one hydrochloride [CN306] | 11.9% | 
